Test results: ChEMBL document CHEMBL5150056, “Synthesis and antibiofilm evaluation of N-acyl-2-aminopyrimidine derivatives against Acinetobacter baumannii” (Bioorg Med Chem, 2022)
Values after ≈ are worked out from the molar mass of the structure shown. Each block holds one compound with its values, some of them ahead of it. Active and inactive are the calls of the source. The calls are words filed in the database; no cut-off is given here.

How the values were obtained:
Acinetobacter baumannii [1] = assay: Antibacterial activity against Acinetobacter baumannii assessed as planktonic growth inhibition incubated for 18 to 24 hrs by CLSI protocol based assay; format: functional; details: time 18-24 hrs
Acinetobacter baumannii [2] = assay: Antibacterial activity against Acinetobacter baumannii S1 assessed as planktonic growth inhibition incubated for 18 to 24 hrs by CLSI protocol based assay; format: functional; details: time 18-24 hrs
Acinetobacter baumannii [3] = assay: Antibiofilm activity against Acinetobacter baumannii S1 assessed as inhibition rate of biofilm formation at 100 uM incubated for 18 to 24 hrs by crystal violet staining based assay (reference value: 28.8 +/- 8.21%); format: functional; design: scale not given: the % may be the effect or the level left; details: time 18-24 hrs
3T3-L1 [4] = assay: Cytotoxicity against mouse 3T3-L1 cells assessed as reduction in cell viability at 50 uM incubated for 24 hrs by MTT assay relative to control; format: toxicity, cell-based; details: 3t3-l1, 24 h
Acinetobacter baumannii [5] = assay: Antibiofilm activity against Acinetobacter baumannii 1778027 assessed as inhibition of biofilm formation incubated for 18 to 24 hrs by crystal violet staining based assay; format: functional, organism-based
Acinetobacter baumannii [6] = assay: Antibiofilm activity against Acinetobacter baumannii S1 assessed as inhibition of biofilm formation incubated for 18 to 24 hrs by crystal violet staining based assay; format: functional, organism-based
Acinetobacter baumannii [7] = assay: Synergistic antibacterial activity against Acinetobacter baumannii assessed as planktonic growth inhibition incubated for 18 to 24 hrs in the presence of gentamycin sulphate by CLSI protocol based checkerboard assay; format: functional; details: time 18-24 hrs
Acinetobacter baumannii [8] = assay: Antibiofilm activity against Acinetobacter baumannii assessed as reduction in bacterial motility in agar plates by quorum sensing process at 100 uM incubated for 24 hrs; format: functional, organism-based
3T3-L1 [9] = assay: Cytotoxicity against mouse 3T3-L1 cells assessed as reduction in cell viability at 25 uM incubated for 24 hrs by MTT assay relative to control; format: toxicity, cell-based; details: 3t3-l1, 24 h
3T3-L1 [10] = assay: Cytotoxicity against mouse 3T3-L1 cells assessed as reduction in cell viability at 200 uM incubated for 24 hrs by MTT assay relative to control; format: toxicity, cell-based; details: 3t3-l1, 24 h
Acinetobacter baumannii [11] = assay: Synergistic antibacterial activity against Acinetobacter baumannii assessed as planktonic growth inhibition incubated for 18 to 24 hrs in the presence of oxacillin by CLSI protocol based checkerboard assay; format: functional; details: time 18-24 hrs
Acinetobacter baumannii [12] = assay: Antibiofilm activity against Acinetobacter baumannii 1780608 assessed as inhibition of biofilm formation incubated for 18 to 24 hrs by crystal violet staining based assay; format: functional, organism-based
Escherichia coli = assay: Antibiofilm activity against Escherichia coli Dh5alpha assessed as inhibition of biofilm formation incubated for 18 to 24 hrs by crystal violet staining based assay; format: functional, organism-based; details: DH5-alpha
[13] = tested on: Staphylococcus epidermidis; assay: Antibiofilm activity against Staphylococcus epidermis ATCC 102555 assessed as inhibition of biofilm formation incubated for 18 to 24 hrs by crystal violet staining based assay; format: functional, organism-based
Acinetobacter baumannii [14] = assay: Synergistic antibacterial activity against Acinetobacter baumannii assessed as fractional inhibitory concentration index incubated for 18 to 24 hrs in the presence of chloramphenicol by CLSI protocol based checkerboard assay; format: functional; details: time 18-24 hrs
Acinetobacter baumannii [15] = assay: Antibiofilm activity against Acinetobacter baumannii assessed as reduction in biofilm thickness at 100 uM incubated for 24 hrs by Alexa fluor 488 staining based confocal laser microscopic analysis (reference value: 25.91); format: functional
Acinetobacter baumannii [16] = assay: Antibiofilm activity against Acinetobacter baumannii assessed as reduction in extracellular polysaccharides at 100 uM incubated for 1 hrs by ELISA analysis; format: functional; design: scale not given: the % may be the effect or the level left
3T3-L1 [17] = assay: Cytotoxicity against mouse 3T3-L1 cells assessed as reduction in cell viability at 100 uM incubated for 24 hrs by MTT assay relative to control; format: toxicity, cell-based; details: 3t3-l1, 24 h
Acinetobacter baumannii [18] = assay: Synergistic antibacterial activity against Acinetobacter baumannii assessed as planktonic growth inhibition incubated for 18 to 24 hrs in the presence of chloramphenicol by CLSI protocol based checkerboard assay; format: functional; details: time 18-24 hrs
Acinetobacter baumannii [19] = assay: Antibiofilm activity against Acinetobacter baumannii 1925052 assessed as inhibition of biofilm formation incubated for 18 to 24 hrs by crystal violet staining based assay; format: functional, organism-based
Acinetobacter baumannii [20] = assay: Antibiofilm activity against Acinetobacter baumannii 1913061 assessed as inhibition of biofilm formation incubated for 18 to 24 hrs by crystal violet staining based assay; format: functional, organism-based
Acinetobacter baumannii [21] = assay: Antibiofilm activity against Acinetobacter baumannii ATCC19606 assessed as inhibition of biofilm formation incubated for 18 to 24 hrs by crystal violet staining based assay; format: functional, organism-based
Pseudomonas aeruginosa = assay: Antibiofilm activity against Pseudomonas aeruginosa ATCC 27853 assessed as inhibition of biofilm formation incubated for 18 to 24 hrs by crystal violet staining based assay; format: functional, organism-based
3T3-L1 [22] = assay: Cytotoxicity against mouse 3T3-L1 cells assessed as reduction in cell viability at 12.5 uM incubated for 24 hrs by MTT assay relative to control; format: toxicity, cell-based; details: 3t3-l1, 24 h
Acinetobacter baumannii [23] = assay: Synergistic antibacterial activity against Acinetobacter baumannii assessed as fractional inhibitory concentration index incubated for 18 to 24 hrs in the presence of gentamycin sulphate by CLSI protocol based checkerboard assay; format: functional; details: time 18-24 hrs
Acinetobacter baumannii [24] = assay: Synergistic antibacterial activity against Acinetobacter baumannii assessed as fractional inhibitory concentration index incubated for 18 to 24 hrs in the presence of oxacillin by CLSI protocol based checkerboard assay; format: functional; details: time 18-24 hrs
Acinetobacter baumannii [25] = assay: Antibiofilm activity against Acinetobacter baumannii assessed as reduction in biofilm brightness at 100 uM incubated for 24 hrs by Alexa fluor 488 staining based confocal laser microscopic analysis; format: functional, organism-based
[26] = Cytotoxicity against mouse 3T3-L1 cells assessed as inhibition of cell growth incubated for 24 hrs by MTT assay; format: toxicity, cell-based
Staphylococcus aureus = assay: Antibiofilm activity against Staphylococcus aureus ATCC […] assessed as inhibition of biofilm formation incubated for 18 to 24 hrs by crystal violet staining based assay; format: functional, organism-based

MIC (Acinetobacter baumannii [1]): 256 µg/mL (≈ 792 µM)
SMILES: O=C(N[C@H](CO)[C@H](O)c1ccc([N+](=O)[O-])cc1)C(Cl)Cl [CHLORAMPHENICOL]

MIC (Acinetobacter baumannii [2]): > 256 µg/mL
SMILES: CCCCCCCCCCCCCC(=O)Nc1nc(C)cc(O)n1
Activity (Acinetobacter baumannii [3]): 37.8%

MIC (Acinetobacter baumannii [2]): > 256 µg/mL
SMILES: CCCCCCCCCCCCCC(=O)Nc1nccc(Cl)n1
Activity (Acinetobacter baumannii [3]): 44.9%

MIC (Acinetobacter baumannii [2]): > 256 µg/mL
SMILES: CCCCCCCCCCCCCCCC(=O)Nc1ncccn1
Activity (Acinetobacter baumannii [3]): 22.5%

MIC (Acinetobacter baumannii [2]): > 256 µg/mL
SMILES: CCCCCCCCCCCCCC(=O)Nc1nc(C)cc(Cl)n1
Activity (Acinetobacter baumannii [3]): 46.6%

SMILES: CN[C@@H]1[C@@H](O)[C@@H](O[C@@H]2[C@@H](O)[C@H](O[C@H]3O[C@H]([C@@H](C)NC)CC[C@H]3N)[C@@H](N)C[C@H]2N)OC[C@]1(C)O.O=S(=O)(O)O
MIC (Acinetobacter baumannii [1]): 1 µg/mL

MIC (Acinetobacter baumannii [2]): > 256 µg/mL
SMILES: O=C(Nc1ncccn1)c1ccc([N+](=O)[O-])cc1
Activity (Acinetobacter baumannii [3]): 25.1%

MIC (Acinetobacter baumannii [2]): > 256 µg/mL
SMILES: O=C(Nc1ncccn1)c1ccccc1
Activity (Acinetobacter baumannii [3]): 28%

MIC (Acinetobacter baumannii [2]): > 256 µg/mL
SMILES: O=C(Nc1ncccn1)C(F)(F)C(F)(F)C(F)(F)F
Activity (Acinetobacter baumannii [3]): 19.9%

MIC (Acinetobacter baumannii [2]): > 256 µg/mL
SMILES: O=C(Cc1cccs1)Nc1ncccn1
Activity (Acinetobacter baumannii [3]): 5.5%

MIC (Acinetobacter baumannii [2]): > 256 µg/mL
SMILES: CCCCCCCCCCCC(=O)Nc1ncccn1
Activity (Acinetobacter baumannii [3]): 19.1%

MIC (Acinetobacter baumannii [2]): > 256 µg/mL
SMILES: CCCCCCCCCCCCCC(=O)Nc1nc(Cl)cc(Cl)n1
Activity (Acinetobacter baumannii [3]): 63.1%

MIC (Acinetobacter baumannii [2]): > 256 µg/mL
SMILES: CCCCCCCCCCCCCC(=O)Nc1nccc(C)n1
Activity (Acinetobacter baumannii [3]): 26.9%

SMILES: CCCCCCCCCCCCCC(=O)Nc1nc(F)cc(F)n1
Activity (Acinetobacter baumannii [3]): 20.8%

MIC (Acinetobacter baumannii [2]): > 256 µg/mL
SMILES: CCCCCCCC(=O)Nc1ncccn1
Activity (Acinetobacter baumannii [3]): 17.8%

MIC (Acinetobacter baumannii [2]): > 256 µg/mL
SMILES: CCCC(=O)Nc1ncccn1
Activity (Acinetobacter baumannii [3]): 28.3%

MIC (Acinetobacter baumannii [2]): > 256 µg/mL
SMILES: CCCCCCCCCCCCCC(=O)Nc1nc(Cl)cc(OC)n1
Activity (Acinetobacter baumannii [3]): 49.5%

IC50 (Acinetobacter baumannii [5]): 47.5 µM | IC50 (Acinetobacter baumannii [6]): 16.5 µM | MIC (Acinetobacter baumannii [2]): > 256 µg/mL | MIC (Acinetobacter baumannii [1]): 256 µg/mL (≈ 604 µM) | MIC (Acinetobacter baumannii [7]): 0.125 µg/mL | MIC (Acinetobacter baumannii [11]): 128 µg/mL | IC50 (Acinetobacter baumannii [12]): 5.92 µM | IC50 (Escherichia coli): 3.68 µM | IC50 [13]: 6.76 µM | MIC (Acinetobacter baumannii [18]): 64 µg/mL | IC50 (Acinetobacter baumannii [19]): 3.98 µM | IC50 (Acinetobacter baumannii [20]): 1.89 µM | IC50 (Acinetobacter baumannii [21]): 4.43 µM | IC50 (Pseudomonas aeruginosa): 9.98 µM | IC50 (Staphylococcus aureus): 11.2 µM
SMILES: CCCCCCCCCCCCCC(=O)Nc1nc(Cl)cc(N2CCNCC2)n1
Activity (3T3-L1 [4]): 80.61% | Activity (Acinetobacter baumannii [8]): Active | Activity (3T3-L1 [9]): 99.3% | Activity (3T3-L1 [10]): 20.84% | fractional inhibitory concentration index (FICI) (Acinetobacter baumannii [14]): 0.25 | Activity (Acinetobacter baumannii [15]): 14.68 | Activity (Acinetobacter baumannii [16]): 72% | Activity (3T3-L1 [17]): 21.11% | Activity (3T3-L1 [22]): 99.3% | fractional inhibitory concentration index (FICI) (Acinetobacter baumannii [23]): 0.13 | Activity (Acinetobacter baumannii [3]): 70.2% | fractional inhibitory concentration index (FICI) (Acinetobacter baumannii [24]): 0.25 | Activity (Acinetobacter baumannii [25]): Active | IC50 at 24 h [26]: 73.6 µM

MIC (Acinetobacter baumannii [2]): > 256 µg/mL
SMILES: CCCCCCCCCCCCCC(=O)Nc1ncc(Br)cn1
Activity (Acinetobacter baumannii [3]): 31.1%

MIC (Acinetobacter baumannii [2]): > 256 µg/mL
SMILES: CCOC(=O)CCC(=O)Nc1ncccn1
Activity (Acinetobacter baumannii [3]): 19.1%

MIC (Acinetobacter baumannii [2]): > 256 µg/mL
SMILES: CCCCCCCCCCCCCC(=O)Nc1ncccn1
Activity (Acinetobacter baumannii [3]): 36.3%

MIC (Acinetobacter baumannii [2]): > 256 µg/mL
SMILES: CCCCCCCCCCCCCC(=O)Nc1nc(Cl)cc(NC)n1
Activity (Acinetobacter baumannii [3]): 27%

MIC (Acinetobacter baumannii [2]): > 256 µg/mL
SMILES: CCCCCCCCCCCCCC(=O)Nc1ncc(Cl)c(Cl)n1
Activity (Acinetobacter baumannii [3]): 30.9%
